The results in this text go back to BindingDB's records for doi:10.1021/acs.jmedchem.5b01170 (University of Arizona, 2015).

Molecules are shown by their SMILES.

In general, IC50 refers to the point on the concentration scale where inhibition reaches its midpoint.

The assay has as its target Delta-type opioid receptor (Mus musculus, UniProt P32300). Briefly: Agonist activity at delta opioid receptor in ICR mouse isolated vas deferens assessed as inhibition of electrically-stimulated muscle contraction.

Delta-type opioid receptor, sequence (P32300 whole entry): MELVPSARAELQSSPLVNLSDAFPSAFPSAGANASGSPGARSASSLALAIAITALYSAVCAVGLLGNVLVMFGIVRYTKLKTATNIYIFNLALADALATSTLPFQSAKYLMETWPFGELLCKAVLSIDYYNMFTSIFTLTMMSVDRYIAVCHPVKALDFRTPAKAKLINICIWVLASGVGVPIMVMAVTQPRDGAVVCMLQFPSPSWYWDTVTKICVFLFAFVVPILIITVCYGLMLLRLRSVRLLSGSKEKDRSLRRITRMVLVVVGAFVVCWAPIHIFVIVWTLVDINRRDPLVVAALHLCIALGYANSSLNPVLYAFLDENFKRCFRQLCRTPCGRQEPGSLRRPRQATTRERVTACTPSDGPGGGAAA

For `CC(C)C[C@H](NC(=O)[C@@H]1CCCN1C(=O)[C@H](Cc1ccc(F)cc1)NC(=O)CNC(=O)[C@@H](C)NC(=O)[C@@H](N)Cc1ccc(O)cc1)C(=O)N[C@@H](Cc1c[nH]c2ccccc12)C(=O)NCc1cc(C(F)(F)F)cc(C(F)(F)F)c1`, the IC50 is 12 nM.
